Where “and” joins values, the source holds several entries; their conditions need not be identical. Identical values can stand only once.
What was measured:
Propionibacterium acnes = assay: microbe, parasite or virus in culture; type: cell-based; settings: Cutibacterium acnes, 48 h, read-out: Factor of increase of the quantity of P. acnes
Procedure: (§1) Second In Vitro Test Establishing an Effect on Pathogenic and Non-pathogenic Flora
(§2) The effects of an oligosaccharide of a degree of polymerisation close to 10 according to the said first method, and of a chelate of this oligosaccharide+Zn, were evaluated on the non-pathogenic strain Micrococcus kristinae, the pathogenic strain Staphylococcus aureus, and the pathogenic strain Propionibacterium acnes. This latter strain is particularly involved in the irritations occurring in the course of cutaneous acne infections.
(§3) The bacteria are cultured in a saline medium (5.6 g/l of NaCl 2.812 g/l of KH2 PO4), containing pancreatic peptone (5.625 g/l) and extracts of heart/brain (9.843 g/l). The strains M. kristinae and S. aureus are cultured in an aerobic medium, and the strain P. acnes is cultured in an anaerobic medium, either in the presence of 5 g/l of glucose (traditional carbonaceous source) or in the presence of a product according to the invention (oligosaccharide of degree of polymerisation close to 10 alone, or this oligosaccharide forming a chelate with zinc), or in the presence of the medium alone (control cultures). The quantity of bacteria being cultured is evaluated after 48 hours of culturing by turbidimetry at 750 nm.

Staphylococcus aureus = assay: microbe, parasite or virus in culture; type: cell-based; settings: 48 h, read-out: Factor of increase of the quantity of S. aureus
Procedure: as §1, §2, §3

Micrococcus kristinae = assay: microbe, parasite or virus in culture; type: cell-based; settings: Rothia kristinae, 48 h, read-out: Factor of increase of the quantity of M. kristinae
Procedure: as §1, §2, §3

5α reductase (5αR) = target: T1, 5α reductase (5αR) (Canis lupus familiaris, UniProt A0A8I3NQ64); assay: Inhibitor effect on 5α reductase of dog prostate extract (radio-chemical method); type: biochemical; settings: 0.1 mM
T1 construct: raw extract of dog prostate; from tissue; host or cells: dog prostate, raw extract
T1 sequence (A0A8I3NQ64 1-254): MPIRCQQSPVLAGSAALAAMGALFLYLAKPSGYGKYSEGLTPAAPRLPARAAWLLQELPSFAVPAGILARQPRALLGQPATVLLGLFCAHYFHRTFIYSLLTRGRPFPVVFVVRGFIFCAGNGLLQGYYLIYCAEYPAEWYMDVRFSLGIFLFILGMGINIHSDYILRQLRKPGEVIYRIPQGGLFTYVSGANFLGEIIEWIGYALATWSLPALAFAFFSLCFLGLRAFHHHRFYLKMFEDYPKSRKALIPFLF
Excerpt: It is known that enzymes of the type 5α reductase (5αR) transform testosterone into 17β-hydrosy-5α-androstan-3-one or […]. This reaction is crucial in the action of androgens. These enzymes are present in the keratinocytes of the epidermis, in the fibroblasts of the dermis, and in the sebaccous glands in particular.
Solutions of the product were created at five times the final concentration used in the reaction, in a citrate-phosphate buffer at 0.1 M and pH=5.6 (buffer used in the 5αR reaction). The 5αR reference inhibitor was finasteride (Chibro-Prosacar®, in 5 mg tablets), and tested at the concentration of 500 μg/ml after dilution in the citrate-phosphate buffer at 0.1 M.
The enzymatic extract used was a raw extract of dog prostate prepared in a tris buffer of 0.1 M/sucrose 20%, pH=7.5. The sample was calibrated in such a way as to transform approximately 0.1 pmole of testosterone with 50 μl of extract (being an arbitrary unit of the enzyme).
The mixtures were incubated for 4 hours at 37° C., then the testosterone and the derivatives formed were extracted by 500 μl of dichloromethane. The fraction of dichloromethane was drawn off, dried under a nitrogen flow, and chromatographed on silica in a dichloromethane/ethyl acetate/methanol system (proportions 85:15:3). The plates obtained were autoradiographed on Kodak MP® films.
The evaluation of the quantity of testosterone transformed was carried out after sectioning the products formed and counting them in liquid scintillation.

SMILES | fold induction at 5000 µg/mL (Propionibacterium acnes) | fold induction at 5000 µg/mL (Staphylococcus aureus) | fold induction at 5000 µg/mL (Micrococcus kristinae) | Mean (cpm total) (5α reductase (5αR)) [cpm] | Mean e - T (5α reductase (5αR)) [cpm] | inhibition at 100 µM (5α reductase (5αR)) [%] | cpm ASD (5α reductase (5αR); listed as F) | cpm DHT (5α reductase (5αR); listed as F) | cpm total (5α reductase (5αR); listed as F) | activity at 100 µM (5α reductase (5αR); pH 5.6, enzyme control = 100) [%]
O=C[C@H](O)[C@@H](O)[C@H](O)[C@H](O)CO [glucose] | 5.2 | 1.6 | 2.2 |  |  |  |  |  |  | 
CC(C)(C)NC(=O)[C@H]1CC[C@H]2[C@@H]3CC[C@H]4NC(=O)C=C[C@]4(C)[C@H]3CC[C@]12C [finasteride] |  |  |  | 1080 | 647 | 85 | 880 cpm and 748 cpm and 647 cpm | 343 cpm and 262 cpm and 359 cpm | 1223 cpm and 1010 cpm and 1006 cpm | 15
